{
  "source": "the supplement of paper PMC10307832",
  "test_in_all_cases": "relative viability (nuclei count vs DMSO), 5 days (fraction); higher = more cells survive",
  "key": {"Seliciclib": {"compound": "CC[C@H](CO)Nc1nc(NCc2ccccc2)c2ncn(C(C)C)c2n1 [Seliciclib]", "outline": "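Nuclei counted with MetaXpress define viability as the ratio of treated to vehicle wells, given as a median across plates. The lung cancer cell lines were in 1536-well plates, pinned with five √10-spaced library-drug doses and imaged at 4× after 5 days and Hoechst staining. Plates passed with control CV below 25% and at least one doubling.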"}, "Seliciclib + Bortezomib": {"compound": "CC[C@H](CO)Nc1nc(NCc2ccccc2)c2ncn(C(C)C)c2n1 [Seliciclib] + CC(C)C[C@H](NC(=O)[C@H](Cc1ccccc1)NC(=O)c1cnccn1)B(O)O [Bortezomib] (partner 0.002 µM)", "outline": "(§1)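 For relative viability, nuclei counts in treated wells were divided by those in vehicle wells. Lung cancer cell lines had been pin-tool dosed in 1536-well plates the day after seeding and cultured for 5 days, then fixed and stained in one step (final 0.05% Triton X-100, 1% formaldehyde, 1 ug/ml Hoechst) and imaged at 4×. Doses were one drug alone or a fixed anchor-drug dose plus five library-drug doses (not always all listed) in √10 steps, and values are duplicate-plate medians.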"}, "Seliciclib + Navitoclax": {"compound": "CC[C@H](CO)Nc1nc(NCc2ccccc2)c2ncn(C(C)C)c2n1 [Seliciclib] + CC1(C)CCC(c2ccc(Cl)cc2)=C(CN2CCN(c3ccc(C(=O)NS(=O)(=O)c4ccc(N[C@H](CCN5CCOCC5)CSc5ccccc5)c(S(=O)(=O)C(F)(F)F)c4)cc3)CC2)C1 [Navitoclax] (partner 0.5 µM)", "outline": "as §1"}, "Seliciclib + Foretinib": {"compound": "CC[C@H](CO)Nc1nc(NCc2ccccc2)c2ncn(C(C)C)c2n1 [Seliciclib] + COc1cc2c(Oc3ccc(NC(=O)C4(C(=O)Nc5ccc(F)cc5)CC4)cc3F)ccnc2cc1OCCCN1CCOCC1 [Foretinib] (partner 0.25 µM)", "outline": "as §1"}, "Seliciclib + Lapatinib": {"compound": "CC[C@H](CO)Nc1nc(NCc2ccccc2)c2ncn(C(C)C)c2n1 [Seliciclib] + CS(=O)(=O)CCNCc1ccc(-c2ccc3ncnc(Nc4ccc(OCc5cccc(F)c5)c(Cl)c4)c3c2)o1 [Lapatinib] (partner 2 µM)", "outline": "as §1"}, "Seliciclib + Pictilisib": {"compound": "CC[C@H](CO)Nc1nc(NCc2ccccc2)c2ncn(C(C)C)c2n1 [Seliciclib] + CS(=O)(=O)N1CCN(Cc2cc3nc(-c4cccc5[nH]ncc45)nc(N4CCOCC4)c3s2)CC1 [Pictilisib] (partner 1 µM)", "outline": "as §1"}, "Seliciclib + Crizotinib": {"compound": "CC[C@H](CO)Nc1nc(NCc2ccccc2)c2ncn(C(C)C)c2n1 [Seliciclib] + C[C@@H](Oc1cc(-c2cnn(C3CCNCC3)c2)cnc1N)c1c(Cl)ccc(F)c1Cl [Crizotinib] (partner 1 µM)", "outline": "as §1"}, "Seliciclib + Linsitinib": {"compound": "CC[C@H](CO)Nc1nc(NCc2ccccc2)c2ncn(C(C)C)c2n1 [Seliciclib] + C[C@]1(O)C[C@@H](c2nc(-c3ccc4ccc(-c5ccccc5)nc4c3)c3c(N)nccn32)C1 [Linsitinib] (partner 1 µM)", "outline": "as §1"}, "Seliciclib + Alpelisib": {"compound": "CC[C@H](CO)Nc1nc(NCc2ccccc2)c2ncn(C(C)C)c2n1 [Seliciclib] + Cc1nc(NC(=O)N2CCC[C@H]2C(N)=O)sc1-c1ccnc(C(C)(C)C(F)(F)F)c1 [Alpelisib] (partner 2 µM)", "outline": "as §1"}, "Seliciclib + Vorinostat": {"compound": "CC[C@H](CO)Nc1nc(NCc2ccccc2)c2ncn(C(C)C)c2n1 [Seliciclib] + O=C(CCCCCCC(=O)Nc1ccccc1)NO [Vorinostat] (partner 1 µM)", "outline": "as §1"}, "Seliciclib + Olaparib": {"compound": "CC[C@H](CO)Nc1nc(NCc2ccccc2)c2ncn(C(C)C)c2n1 [Seliciclib] + O=C(c1cc(Cc2n[nH]c(=O)c3ccccc23)ccc1F)N1CCN(C(=O)C2CC2)CC1 [Olaparib] (partner 8 µM)", "outline": "as §1"}},
  "data": [
    {"cell line": "IA-LM", "values": [
      {"measurement": "relative viability", "setting": "Seliciclib; 0.08 µM", "value": 1.01},
      {"measurement": "relative viability", "setting": "Seliciclib; 0.253 µM", "value": 1.1},
      {"measurement": "relative viability", "setting": "Seliciclib; 0.8 µM", "value": 0.919},
      {"measurement": "relative viability", "setting": "Seliciclib; 2.53 µM", "value": 1},
      {"measurement": "relative viability", "setting": "Seliciclib; 8 µM", "value": 0.819},
      {"measurement": "relative viability", "setting": "Seliciclib + Bortezomib; first compound 0.08 µM", "value": 0.78},
      {"measurement": "relative viability", "setting": "Seliciclib + Bortezomib; first compound 0.253 µM", "value": 0.94},
      {"measurement": "relative viability", "setting": "Seliciclib + Bortezomib; first compound 0.8 µM", "value": 0.708},
      {"measurement": "relative viability", "setting": "Seliciclib + Bortezomib; first compound 2.53 µM", "value": 0.817},
      {"measurement": "relative viability", "setting": "Seliciclib + Bortezomib; first compound 8 µM", "value": 0.729},
      {"measurement": "relative viability", "setting": "Seliciclib + Navitoclax; first compound 0.08 µM", "value": 0.738},
      {"measurement": "relative viability", "setting": "Seliciclib + Navitoclax; first compound 0.253 µM", "value": 1.15},
      {"measurement": "relative viability", "setting": "Seliciclib + Navitoclax; first compound 0.8 µM", "value": 0.732},
      {"measurement": "relative viability", "setting": "Seliciclib + Navitoclax; first compound 2.53 µM", "value": 0.772},
      {"measurement": "relative viability", "setting": "Seliciclib + Navitoclax; first compound 8 µM", "value": 0.72},
      {"measurement": "relative viability", "setting": "Seliciclib + Foretinib; first compound 0.08 µM", "value": 1.18},
      {"measurement": "relative viability", "setting": "Seliciclib + Foretinib; first compound 0.253 µM", "value": 1.48},
      {"measurement": "relative viability", "setting": "Seliciclib + Foretinib; first compound 0.8 µM", "value": 1.04},
      {"measurement": "relative viability", "setting": "Seliciclib + Foretinib; first compound 2.53 µM", "value": 1.1},
      {"measurement": "relative viability", "setting": "Seliciclib + Foretinib; first compound 8 µM", "value": 0.925},
      {"measurement": "relative viability", "setting": "Seliciclib + Lapatinib; first compound 0.08 µM", "value": 0.537},
      {"measurement": "relative viability", "setting": "Seliciclib + Lapatinib; first compound 0.253 µM", "value": 1.07},
      {"measurement": "relative viability", "setting": "Seliciclib + Lapatinib; first compound 0.8 µM", "value": 0.719},
      {"measurement": "relative viability", "setting": "Seliciclib + Lapatinib; first compound 2.53 µM", "value": 0.977},
      {"measurement": "relative viability", "setting": "Seliciclib + Lapatinib; first compound 8 µM", "value": 0.82},
      {"measurement": "relative viability", "setting": "Seliciclib + Pictilisib; first compound 0.08 µM", "value": 0.338},
      {"measurement": "relative viability", "setting": "Seliciclib + Pictilisib; first compound 0.253 µM", "value": 0.412},
      {"measurement": "relative viability", "setting": "Seliciclib + Pictilisib; first compound 0.8 µM", "value": 0.344},
      {"measurement": "relative viability", "setting": "Seliciclib + Pictilisib; first compound 2.53 µM", "value": 0.346},
      {"measurement": "relative viability", "setting": "Seliciclib + Pictilisib; first compound 8 µM", "value": 0.232},
      {"measurement": "relative viability", "setting": "Seliciclib + Crizotinib; first compound 0.08 µM", "value": 0.596},
      {"measurement": "relative viability", "setting": "Seliciclib + Crizotinib; first compound 0.253 µM", "value": 1.17},
      {"measurement": "relative viability", "setting": "Seliciclib + Crizotinib; first compound 0.8 µM", "value": 0.92},
      {"measurement": "relative viability", "setting": "Seliciclib + Crizotinib; first compound 2.53 µM", "value": 0.906},
      {"measurement": "relative viability", "setting": "Seliciclib + Crizotinib; first compound 8 µM", "value": 0.622},
      {"measurement": "relative viability", "setting": "Seliciclib + Linsitinib; first compound 0.08 µM", "value": 0.644},
      {"measurement": "relative viability", "setting": "Seliciclib + Linsitinib; first compound 0.253 µM", "value": 0.793},
      {"measurement": "relative viability", "setting": "Seliciclib + Linsitinib; first compound 0.8 µM", "value": 0.602},
      {"measurement": "relative viability", "setting": "Seliciclib + Linsitinib; first compound 2.53 µM", "value": 0.709},
      {"measurement": "relative viability", "setting": "Seliciclib + Linsitinib; first compound 8 µM", "value": 0.611},
      {"measurement": "relative viability", "setting": "Seliciclib + Alpelisib; first compound 0.08 µM", "value": 0.645},
      {"measurement": "relative viability", "setting": "Seliciclib + Alpelisib; first compound 0.253 µM", "value": 0.935},
      {"measurement": "relative viability", "setting": "Seliciclib + Alpelisib; first compound 0.8 µM", "value": 0.599},
      {"measurement": "relative viability", "setting": "Seliciclib + Alpelisib; first compound 2.53 µM", "value": 0.979},
      {"measurement": "relative viability", "setting": "Seliciclib + Alpelisib; first compound 8 µM", "value": 0.556},
      {"measurement": "relative viability", "setting": "Seliciclib + Vorinostat; first compound 0.08 µM", "value": 0.895},
      {"measurement": "relative viability", "setting": "Seliciclib + Vorinostat; first compound 0.253 µM", "value": 0.984},
      {"measurement": "relative viability", "setting": "Seliciclib + Vorinostat; first compound 0.8 µM", "value": 0.848},
      {"measurement": "relative viability", "setting": "Seliciclib + Vorinostat; first compound 2.53 µM", "value": 0.935},
      {"measurement": "relative viability", "setting": "Seliciclib + Vorinostat; first compound 8 µM", "value": 0.867},
      {"measurement": "relative viability", "setting": "Seliciclib + Olaparib; first compound 0.08 µM", "value": 0.8},
      {"measurement": "relative viability", "setting": "Seliciclib + Olaparib; first compound 0.253 µM", "value": 0.973},
      {"measurement": "relative viability", "setting": "Seliciclib + Olaparib; first compound 0.8 µM", "value": 0.879},
      {"measurement": "relative viability", "setting": "Seliciclib + Olaparib; first compound 2.53 µM", "value": 0.72},
      {"measurement": "relative viability", "setting": "Seliciclib + Olaparib; first compound 8 µM", "value": 0.745}
    ]}
  ]
}
